Assay results reported in PubChem BioAssay (NCI).
“And” between values parts separate entries of the source, which are not always exact repeats. Equal values may be shown once.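 In this assay, cells in 96-well plates receive the compound at five concentrations for 48 hours. Endpoints are linearly interpolated between the surrounding concentrations. GI50 = concentration required for 50% inhibition of growth. TGI: concentration producing complete growth inhibition.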

Key:
Assay in all cases: NCI-60 cell line screen, 48 h
HS 578T breast = system: HS 578T breast
COLO 205 colon = system: COLO 205 colon
CAKI-1 renal = system: CAKI-1 renal
UO-31 renal = system: UO-31 renal
OVCAR-5 ovarian = system: OVCAR-5 ovarian
BT-549 breast = system: BT-549 breast
HT29 colon = system: HT29 colon
T-47D breast = system: T-47D breast
SNB-78 CNS = system: SNB-78 CNS
TK-10 renal = system: TK-10 renal
EKVX NSCLC = system: EKVX NSCLC
OVCAR-4 ovarian = system: OVCAR-4 ovarian
KM20L2 colon = system: KM20L2 colon
786-0 renal = system: 786-0 renal
SK-MEL-28 melanoma = system: SK-MEL-28 melanoma
SK-OV-3 ovarian = system: SK-OV-3 ovarian
HCC-2998 colon = system: HCC-2998 colon
HOP-18 NSCLC = system: HOP-18 NSCLC
ACHN renal = system: ACHN renal
NCI-H522 lung = system: NCI-H522 lung
K-562 leukemia = system: K-562 leukemia
SK-MEL-5 melanoma = system: SK-MEL-5 melanoma
A549 NSCLC = system: A549 NSCLC
IGROV1 ovarian = system: IGROV1 ovarian
RPMI-8226 leukemia = system: RPMI-8226 leukemia
OVCAR-3 ovarian = system: OVCAR-3 ovarian
SK-MEL-2 melanoma = system: SK-MEL-2 melanoma
SNB-75 CNS = system: SNB-75 CNS
SW-620 colon = system: SW-620 colon
DMS 273 small cell lung = system: DMS 273 small cell lung
DLD-1 colon = system: DLD-1 colon
SN12C renal = system: SN12C renal
SF-539 CNS = system: SF-539 CNS
KM12 colon = system: KM12 colon
SF-268 CNS = system: SF-268 CNS
HCT-116 colon = system: HCT-116 colon
U251 CNS = system: U251 CNS
LXFL 529 NSCLC = system: LXFL 529 NSCLC
M19-MEL melanoma = system: M19-MEL melanoma
LOX IMVI melanoma = system: LOX IMVI melanoma
NCI-H23 lung = system: NCI-H23 lung
HOP-62 NSCLC = system: HOP-62 NSCLC
SNB-19 CNS = system: SNB-19 CNS
CCRF-CEM leukemia = system: CCRF-CEM leukemia
MOLT-4 leukemia = system: MOLT-4 leukemia
UACC-62 melanoma = system: UACC-62 melanoma
OVCAR-8 ovarian = system: OVCAR-8 ovarian
NCI-H460 lung = system: NCI-H460 lung
SF-295 CNS = system: SF-295 CNS
HOP-92 NSCLC = system: HOP-92 NSCLC
HL-60(TB) leukemia = system: HL-60(TB) leukemia
UACC-257 melanoma = system: UACC-257 melanoma
A498 renal = system: A498 renal
NCI-H226 lung = system: NCI-H226 lung
HCT-15 colon = system: HCT-15 colon
M14 melanoma = system: M14 melanoma
MALME-3M melanoma = system: MALME-3M melanoma
RXF 393 renal = system: RXF 393 renal
MDA-MB-231 breast = system: MDA-MB-231 breast
PC-3 prostate = system: PC-3 prostate
SR leukemia = system: SR leukemia
MCF7 breast = system: MCF7 breast
DU-145 prostate = system: DU-145 prostate
NCI/ADR-RES ovarian = system: NCI/ADR-RES ovarian
MDA-N = system: MDA-N
MDA-MB-435 = system: MDA-MB-435

## COc1ccc(/C=C\c2cc(OC)c(OC)c(OC)c2)cc1O
HS 578T breast
  TGI: 8.09 µM
COLO 205 colon
  GI50: 2.49 µM
  TGI: 43.3 µM and 22.1 µM
CAKI-1 renal
  TGI: 13.9 µM and > 59.5 µM
UO-31 renal
  TGI: > 88.6 µM
OVCAR-5 ovarian
  GI50: 4.27 µM
  TGI: 78.6 µM and > 91.4 µM
BT-549 breast
  TGI: > 100 µM
HT29 colon
  GI50: 0.664 µM
  TGI: 9.28 µM and > 44.9 µM
T-47D breast
  GI50: 48 µM
  TGI: 91.2 µM
SNB-78 CNS
  GI50: 0.00409 µM and < 0.001 µM
  TGI: > 100 µM
TK-10 renal
  GI50: 2.63 µM and 0.567 µM
  TGI: 4.16 µM
EKVX NSCLC
  TGI: 82.1 µM
OVCAR-4 ovarian
  GI50: 6.58 µM
KM20L2 colon
  TGI: 8.28 µM and 16.2 µM
786-0 renal
  TGI: 25.5 µM
SK-MEL-28 melanoma
  GI50: 3.16 µM
SK-OV-3 ovarian
  TGI: < 0.031 µM
HCC-2998 colon
  TGI: 1.22 µM and 2.38 µM
HOP-18 NSCLC
  TGI: > 100 µM

## CC(=O)[CH-]C(=O)c1ccccc1.CC(=O)[CH-]C(=O)c1ccccc1.CC[O-].O=C1c2ccccc2C(=O)c2c1ccc(O)c2[O-].[Ti+4]
ACHN renal
  TGI: > 100 µM
NCI-H522 lung
  TGI: 60.3 µM
K-562 leukemia
  TGI: > 100 µM
SK-MEL-5 melanoma
  GI50: 30.4 µM
  TGI: > 100 µM
COLO 205 colon
  TGI: > 100 µM
CAKI-1 renal
  TGI: > 100 µM
UO-31 renal
  TGI: 86.9 µM
A549 NSCLC
  TGI: > 100 µM
IGROV1 ovarian
  TGI: > 100 µM
RPMI-8226 leukemia
  TGI: 64.7 µM
OVCAR-3 ovarian
  TGI: > 100 µM
SK-MEL-2 melanoma
  TGI: > 100 µM
SNB-75 CNS
  TGI: > 100 µM
SW-620 colon
  TGI: > 100 µM
DMS 273 small cell lung
  TGI: > 100 µM
DLD-1 colon
  TGI: > 100 µM
SN12C renal
  TGI: > 100 µM
OVCAR-5 ovarian
  TGI: > 100 µM
SF-539 CNS
  TGI: > 100 µM
KM12 colon
  TGI: > 100 µM
SF-268 CNS
  TGI: > 100 µM
HCT-116 colon
  TGI: > 100 µM
HT29 colon
  TGI: > 100 µM
U251 CNS
  TGI: > 100 µM
LXFL 529 NSCLC
  TGI: > 100 µM
M19-MEL melanoma
  TGI: 80.2 µM
LOX IMVI melanoma
  TGI: > 100 µM
NCI-H23 lung
  TGI: > 100 µM
HOP-62 NSCLC
  TGI: > 100 µM
SNB-19 CNS
  TGI: > 100 µM
CCRF-CEM leukemia
  TGI: 56.6 µM
MOLT-4 leukemia
  TGI: 61.2 µM
UACC-62 melanoma
  TGI: > 100 µM
OVCAR-8 ovarian
  TGI: > 100 µM
EKVX NSCLC
  TGI: 83.2 µM
NCI-H460 lung
  TGI: > 100 µM
OVCAR-4 ovarian
  TGI: > 100 µM
SF-295 CNS
  TGI: > 100 µM
HOP-92 NSCLC
  TGI: > 100 µM
HL-60(TB) leukemia
  GI50: 19.6 µM
  TGI: 56.6 µM
UACC-257 melanoma
  TGI: > 100 µM
KM20L2 colon
  GI50: 80.5 µM
  TGI: > 100 µM
A498 renal
  TGI: 83.5 µM
NCI-H226 lung
  TGI: > 100 µM
786-0 renal
  TGI: > 100 µM
SK-MEL-28 melanoma
  TGI: > 100 µM
HCT-15 colon
  TGI: > 100 µM
SK-OV-3 ovarian
  GI50: 52.5 µM
  TGI: > 100 µM
M14 melanoma
  TGI: > 100 µM
MALME-3M melanoma
  GI50: 25.6 µM
  TGI: 61 µM
HCC-2998 colon
  TGI: > 100 µM
HOP-18 NSCLC
  GI50: 23.1 µM
  TGI: 88.3 µM

## C[C@H]1COC2=C1C(=O)C(=O)c1c2ccc2c1CCCC2(C)C
RXF 393 renal
  TGI: 55.6 µM
MDA-MB-231 breast
  TGI: > 100 µM
ACHN renal
  TGI: > 81.7 µM
NCI-H522 lung
  TGI: 12.3 µM
K-562 leukemia
  TGI: > 100 µM
HS 578T breast
  TGI: 9.55 µM
SK-MEL-5 melanoma
  TGI: 1.43 µM
COLO 205 colon
  TGI: 4.19 µM
CAKI-1 renal
  TGI: > 54.9 µM
UO-31 renal
  TGI: 14.3 µM
A549 NSCLC
  TGI: 4.55 µM
IGROV1 ovarian
  TGI: 29.2 µM
RPMI-8226 leukemia
  TGI: 71.2 µM
OVCAR-3 ovarian
  TGI: 5.92 µM
SK-MEL-2 melanoma
  TGI: 15.3 µM
PC-3 prostate
  TGI: > 64.5 µM
SR leukemia
  TGI: > 42.7 µM
SNB-75 CNS
  TGI: 3.81 µM
SW-620 colon
  TGI: 34.5 µM
MCF7 breast
  TGI: 7.88 µM
SN12C renal
  TGI: 21.1 µM
OVCAR-5 ovarian
  TGI: > 91.4 µM
DU-145 prostate
  TGI: 2.08 µM
SF-539 CNS
  TGI: 18.2 µM
KM12 colon
  TGI: 37 µM
SF-268 CNS
  TGI: 44.4 µM
BT-549 breast
  TGI: 5.71 µM
HCT-116 colon
  TGI: 46.3 µM
HT29 colon
  TGI: 7.39 µM
U251 CNS
  TGI: 27.4 µM
NCI/ADR-RES ovarian
  TGI: 24 µM
MDA-N
  TGI: 3.26 µM
LOX IMVI melanoma
  TGI: 14.4 µM
NCI-H23 lung
  TGI: 3.57 µM
HOP-62 NSCLC
  TGI: 21.2 µM
SNB-19 CNS
  TGI: 66.4 µM
T-47D breast
  TGI: > 100 µM
CCRF-CEM leukemia
  TGI: > 39.5 µM
MOLT-4 leukemia
  TGI: > 56.2 µM
UACC-62 melanoma
  TGI: 8.2 µM
OVCAR-8 ovarian
  TGI: 22.9 µM
TK-10 renal
  TGI: 65.9 µM
EKVX NSCLC
  TGI: 71.7 µM
NCI-H460 lung
  TGI: > 34.5 µM
OVCAR-4 ovarian
  TGI: > 100 µM
SF-295 CNS
  TGI: 3.73 µM
HOP-92 NSCLC
  TGI: > 100 µM
HL-60(TB) leukemia
  TGI: 42.3 µM
UACC-257 melanoma
  TGI: 6.46 µM
A498 renal
  TGI: 52.6 µM
NCI-H226 lung
  TGI: 24.1 µM
786-0 renal
  TGI: 35.2 µM
SK-MEL-28 melanoma
  TGI: 20.6 µM
HCT-15 colon
  TGI: 18.6 µM
MDA-MB-435
  TGI: 2.74 µM
SK-OV-3 ovarian
  TGI: 83.6 µM
M14 melanoma
  TGI: 3.15 µM
MALME-3M melanoma
  TGI: 2.07 µM
HCC-2998 colon
  TGI: 19.6 µM

## O=C1C(=Cc2ccc(Cl)c(Cl)c2)C([O-])=C([P+](c2ccccc2)(c2ccccc2)c2ccccc2)C([O-])=C1[P+](c1ccccc1)(c1ccccc1)c1ccccc1
RXF 393 renal
  TGI: 3.35 µM
MDA-MB-231 breast
  TGI: 8.78 µM
ACHN renal
  TGI: 9.26 µM
NCI-H522 lung
  TGI: 4.1 µM
K-562 leukemia
  TGI: 8.33 µM
HS 578T breast
  TGI: 12.7 µM
SK-MEL-5 melanoma
  TGI: 5.24 µM
COLO 205 colon
  TGI: 3.28 µM
CAKI-1 renal
  TGI: 6.78 µM
UO-31 renal
  TGI: 8.89 µM
A549 NSCLC
  TGI: 10.4 µM
IGROV1 ovarian
  TGI: 6.34 µM
RPMI-8226 leukemia
  TGI: 9.23 µM
OVCAR-3 ovarian
  TGI: 3.74 µM
SK-MEL-2 melanoma
  TGI: 6.91 µM
PC-3 prostate
  TGI: 3.79 µM
SR leukemia
  TGI: 11.6 µM
SNB-75 CNS
  TGI: 15.9 µM
SW-620 colon
  TGI: 6.75 µM
MCF7 breast
  TGI: 11.2 µM
SN12C renal
  TGI: 6.47 µM
OVCAR-5 ovarian
  TGI: 12.6 µM
DU-145 prostate
  TGI: 28.1 µM
SF-539 CNS
  TGI: 5.17 µM
KM12 colon
  TGI: 4.66 µM
SF-268 CNS
  TGI: 3.94 µM
BT-549 breast
  TGI: 5.19 µM
HCT-116 colon
  TGI: 3.73 µM
HT29 colon
  TGI: 4.05 µM
U251 CNS
  TGI: 6.29 µM
NCI/ADR-RES ovarian
  TGI: 19.3 µM
MDA-N
  TGI: 3.77 µM
LOX IMVI melanoma
  TGI: 2.67 µM
NCI-H23 lung
  TGI: 10 µM
HOP-62 NSCLC
  TGI: 7.8 µM
SNB-19 CNS
  TGI: 6.35 µM
T-47D breast
  TGI: 15.7 µM
CCRF-CEM leukemia
  TGI: 5.6 µM
MOLT-4 leukemia
  TGI: 3.84 µM
UACC-62 melanoma
  TGI: 5.29 µM
OVCAR-8 ovarian
  TGI: 6.7 µM
TK-10 renal
  TGI: 5.6 µM
EKVX NSCLC
  TGI: 6.64 µM
NCI-H460 lung
  TGI: 10.9 µM
OVCAR-4 ovarian
  TGI: 10.4 µM
SF-295 CNS
  TGI: 6.74 µM
HOP-92 NSCLC
  TGI: 4.86 µM
HL-60(TB) leukemia
  TGI: 3.18 µM
UACC-257 melanoma
  TGI: 5.8 µM
A498 renal
  TGI: 31.9 µM
NCI-H226 lung
  TGI: 7.14 µM
786-0 renal
  TGI: 4.18 µM
SK-MEL-28 melanoma
  TGI: 6.07 µM
HCT-15 colon
  TGI: 13.8 µM
MDA-MB-435
  TGI: 5.59 µM
SK-OV-3 ovarian
  TGI: 4.48 µM
M14 melanoma
  TGI: 6.66 µM
MALME-3M melanoma
  TGI: 4.9 µM
HCC-2998 colon
  TGI: 5.78 µM
